The values that follow come from PubChem BioAssay (NCI).

Holding throughout (experiment): DTP human tumour cell line panel, 48 h
Assay [1] has as its system SR leukemia.
Assay [2] deals with CAKI-1 renal.
In assay [3] the test system is 786-0 renal.
Assay [4] concerns NCI-H23 lung.
For assay [5], the system named is SF-268 CNS.
The test system of assay [6] is A549 NSCLC.
Assay [7] has as its system HOP-92 NSCLC.
Assay [8] relates to U251 CNS.
Assay [9] deals with BT-549 breast.
Assay [10] has as its system LOX IMVI melanoma.

Molecules are shown by their SMILES.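 Cells were grown in 96-well plates and exposed to each compound for 48 hours at five concentrations; endpoints were interpolated linearly between bracketing concentrations, or set to the highest concentration if not reached. Here, GI50 denotes the concentration required for 50% inhibition of growth. TGI: concentration producing complete growth inhibition.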

As for `CC[C@H](C)[C@H](NC(=O)C12CC(NC(C)=O)(C1)C2)C(=O)N(C)[C@H](C[C@@H](OC(C)=O)c1nc(C(=O)N[C@@H](Cc2ccccc2)C[C@H](C)C(=O)OC)cs1)C(C)C`, the GI50 – broadly, the concentration that inhibits growth by half – in assay [1] is 0.0336 µM; in assay [2] it was 11.2 µM; in assay [3], 0.395 µM; in [4], 0.65 µM; in assay [5] it was 0.809 µM; in assay [6], 0.907 µM. The GI50 in assay [7] is greater than 11.8 µM; in assay [8], 0.433 µM; in assay [9] it was 0.0824 µM; in assay [10] it was 0.229 µM. The TGI in assay [1], in assay [2], in assay [3], in [4], in [5] and in assay [6] was greater than 16.7 µM in each case. Besides, the concentration for total growth inhibition (TGI) (commonly the concentration giving total growth inhibition) in assay [7] is greater than 16.7 µM; in assay [8], greater than 16.7 µM; in assay [9] it was 3.41 µM; in assay [10], greater than 16.7 µM.

Take `COc1ccc(-c2cncn2-c2cc(OC)c(OC)c(OC)c2)cc1F`: the GI50 in assay [1] was less than 0.01 µM; in assay [2], less than 0.0197 µM; in assay [3], less than 0.0214 µM; in assay [4] it was 0.149 µM; in [5], 0.0548 µM; in [6], less than 0.0348 µM. Also, the GI50 in assay [7] is 6 µM; in [8] it was less than 0.0266 µM; in assay [9], less than 0.0291 µM; in assay [10], less than 0.01 µM. Besides, the TGI in assay [2] is greater than 24.4 µM; in assay [3] it was greater than 49.2 µM; in assay [4], greater than 100 µM; in assay [5] it was greater than 100 µM; in [6], greater than 100 µM; in [7], 51.9 µM. Also, the TGI in [8] is greater than 100 µM; in assay [9], greater than 71.6 µM; in assay [10], 64.9 µM.

With `O=C1c2cccc3cc([N+](=O)[O-])cc(c23)C(=O)N1O`, the TGI in assay [1], in assay [2], in assay [3], in [4], in assay [5] and in assay [6] was greater than 100 µM each time. Besides, the TGI in [7], in assay [8], in [9] and in [10] was greater than 100 µM each time.

As to `O=[N+]([O-])c1ccc(-c2ccccc2)c([As](=O)(O)O)c1`, the GI50 was 10.3 µM in assay [1]; 13.2 µM in assay [2]; 17.7 µM in [3]; 18.9 µM in [4]; 9.85 µM in assay [5]; 27.2 µM in assay [6]. Moreover, the GI50 in assay [7] is 13.5 µM; in assay [8], 3.08 µM; in [9], 47.2 µM; in assay [10] it was 8.15 µM. Besides, the TGI was 57.3 µM in assay [1]; 98.1 µM in [2]; 36.4 µM in assay [3]; 88.2 µM in [4]; 39.2 µM in assay [5]; greater than 100 µM in [6]. Moreover, the TGI was 95.4 µM in assay [7], 23.9 µM in assay [8], greater than 100 µM in assay [9] and 46.9 µM in assay [10].

On to `CC(=O)OCC(=O)C1(O)C(C)CC2C3C=C(C)C4=Cc5c(cnn5-c5ccccc5)CC4(C)C3C(O)CC21C` (centres undefined), for which the GI50 is 1.63 µM in [1]; 2.35 µM in assay [2]; 1.49 µM in assay [3]; 2.2 µM in [4]; 1.64 µM in assay [5]; 1.34 µM in assay [6]. Moreover, the GI50 was 0.0261 µM in assay [7], 1 µM in assay [8], 1.25 µM in assay [9] and 1.69 µM in assay [10]. Also, the TGI in [1] was greater than 27.2 µM; in assay [2], 10.1 µM; in assay [3], 3.22 µM; in assay [4] it was 5.78 µM; in [5], 11.4 µM; in [6] it was 13.5 µM. In addition, the TGI is 7.39 µM in assay [7], 3.77 µM in assay [8], 3.85 µM in assay [9] and 4.82 µM in assay [10].

Consider `CON`, for which the GI50 in assay [1], in assay [2], in assay [3], in assay [4], in assay [5] and in assay [6] was greater than 100 µM throughout. Further, the GI50 in [7], in assay [8], in [9] and in [10] was greater than 100 µM in each case. Moreover, the TGI in assay [1], in [2], in assay [3], in assay [4], in [5] and in assay [6] was greater than 100 µM throughout. The TGI in [7], in assay [8], in [9] and in [10] was greater than 100 µM in each case.

Take `CNCCOc1nc2c3cnccc3cc(-c3cc(OC)c(OC)c(OC)c3)c2c2ccncc12`: the GI50 is less than 0.01 µM in assay [1]; 0.039 µM in assay [2]; 0.0194 µM in assay [3]; 0.0278 µM in assay [4]; 0.033 µM in assay [5]; 0.01 µM in [6]. The GI50 is 0.0168 µM in assay [7], 0.0241 µM in assay [8], 0.103 µM in [9] and 0.0131 µM in assay [10]. Further, the TGI in assay [2] was 0.292 µM; in [3], 0.175 µM; in assay [4], 0.161 µM; in assay [5], 0.623 µM; in [6], 0.101 µM; in [7] it was 0.1 µM. The total growth inhibition concentration (TGI) was determined as 0.523 µM in assay [8], 0.613 µM in assay [9] and 0.0944 µM in assay [10].

Turning to `Oc1[nH]c2ccc(Cl)cc2c1/C=c1/ccc2c(c1)N=C(c1cc(F)cc(F)c1)N=2`, the GI50 is 2.98 µM in assay [1]; 5.1 µM in assay [2]; 3.66 µM in assay [3]; 5.01 µM in [4]; 3.7 µM in assay [5]; 2.41 µM in [7]. For the same compound, the GI50 was 2.09 µM in [9] and 3.52 µM in assay [10]. The TGI is 7.95 µM in assay [1]; greater than 100 µM in assay [2]; greater than 100 µM in [3]; greater than 100 µM in assay [4]; greater than 100 µM in assay [5]; 31.1 µM in assay [7]. For the same compound, the TGI is 7.59 µM in [9] and greater than 100 µM in [10].
